From EPA's ToxValDB 9.5 (doi:10.2903/j.efsa.2016.4491)

What was measured:
Poecilus cupreus = experiment: LR50; higher = less toxic; settings: not reported; mortality
Daphnia magna = settings: chronic/long-term; duration: 21 days; reproduction
Canidae = settings: chronic, oral, Dog Other, clinical signs
Bibionidae = settings: chronic/long-term; duration: 28 days

SMILES: CC[C@H](C)[C@H]1O[C@]2(C=C[C@@H]1C)C[C@@H]1C[C@@H](C/C=C(\C)[C@@H](O[C@H]3C[C@H](OC)[C@@H](O[C@H]4C[C@H](OC)[C@@H](O)[C@H](C)O4)[C@H](C)O3)[C@@H](C)/C=C/C=C3\CO[C@@H]4[C@H](O)C(C)=C[C@@H](C(=O)O1)[C@]34O)O2.CO[C@H]1C[C@H](O[C@H]2[C@H](C)O[C@@H](O[C@@H]3/C(C)=C/C[C@@H]4C[C@@H](C[C@]5(C=C[C@H](C)[C@@H](C(C)C)O5)O4)OC(=O)[C@@H]4C=C(C)[C@@H](O)[C@H]5OC/C(=C\C=C\[C@@H]3C)[C@]54O)C[C@@H]2OC)O[C@@H](C)[C@@H]1O [Abamectin]
- LR50 (Poecilus cupreus): > 58 g/ha
- NOEC (Daphnia magna): 1e-05 mg/L
- NOAEL (Rattus norvegicus; acute, clinical signs): 0.5 mg/kg-day
- LD50 (Rattus norvegicus; acute, mortality): 8.7 mg/kg
- NOEC (Rattus norvegicus; chronic, oral): 0.12 mg/kg-day
- LD50 (Anas platyrhynchos; acute, oral, unspecified, mortality): ≤ 77 mg/kg-day
- NOEC (Anas platyrhynchos; chronic/long-term, M): 1.33 mg/kg-day
- LC50 (Anas platyrhynchos; short-term, oral, feed, mortality): 48.6 mg/kg-day
- LC50 (Tagia sp.; acute, duration: 14 days, mortality): 33 mg/kg
- NOEC (Tagia sp.; not reported): ≥ 0.72 mg/kg
- LD50 (Oncorhynchus mykiss; acute, duration: 96 hours, mortality): 0.0036 mg/L
- NOEC (Oncorhynchus mykiss; chronic/long-term, duration: 28 days): 0.00052 mg/L
- NOAEL (Canidae; duration: 18 weeks): 0.25 mg/kg-day
- NOAEL (Canidae; duration: 53 weeks): 0.25 mg/kg-day
- NOEC (Bibionidae): 8.1e-05 mg/L
